Test results reported in the supplement of paper PMC10331698.
± gives the standard deviation of the averaged measurements.

Key:
Experiment in all cases: level (log10 ratio to DMSO vehicle control); higher = higher biomarker level / cell amount than vehicle control
[1] = compound: C=CC(=O)OCC(F)(F)C(F)(F)C(F)(F)C(F)(F)C(F)(F)C(F)(F)C(F)(F)C(F)F [1H,1H,9H-Perfluorononyl acrylate]; settings: in DMSO
Protocol: (§1)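 BioMAP Diversity Plus panel of 12 human primary cell co-culture systems (3C, 4H, LPS, SAg, BT, BF4T, BE3C, CASM3C, HDF3CGF, KF3CT, MyoF, Mphg). Compounds were added 1 h before stimulation and left for 24 h (MyoF 48 h; BT 72 h for soluble read-outs or 6 d for IgG). Biomarkers were read by ELISA, cytotoxicity by SRB, PBMC viability and proliferation by Alamar Blue. Each well value was divided by the mean of 8 DMSO control wells on the same plate and log10 transformed; duplicate blinded samples were tested at 4 concentrations.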

[2] = compound: OCC(F)(F)C(F)(F)C(F)(F)C(F)(F)C(F)(F)C(F)(F)F [6:1 Fluorotelomer alcohol]; settings: in DMSO
Protocol: as §1

[3] = compound: FC(F)(I)C(F)(F)C(F)(F)C(F)(F)C(F)(F)C(F)(F)I [1,6-Diiodoperfluorohexane]; settings: 6700 nM; in DMSO
Protocol: as §1

[4] = compound: C=CC(=O)OCC(F)(F)C(F)(F)C(F)(F)C(F)(F)COC(=O)C=C [1H,1H,6H,6H-Perfluorohexane-1,6-diol diacrylate]; settings: 6700 nM; in DMSO
Protocol: as §1

[5] = compound: OCCCC(F)(F)C(F)(F)C(F)(F)C(F)(F)C(F)(F)C(F)(F)C(F)(F)C(F)(F)F [3-(Perfluorooctyl)propanol]; settings: 6700 nM; in DMSO
Protocol: as §1

[6] = compound: Cc1ccc(S(=O)(=O)OCC(F)(F)C(F)(F)C(F)(F)C(F)(F)C(F)(F)C(F)F)cc1 [1H,1H,7H-Perfluoroheptyl 4-methylbenzenesulfonate]; settings: in DMSO
Protocol: as §1

[7] = compound: FC(F)(F)COC(OCC(F)(F)F)OCC(F)(F)F [tris(Trifluoroethoxy)methane]; settings: in DMSO
Protocol: as §1

Perfluoropinacol = compound: OC(C(F)(F)F)(C(F)(F)F)C(O)(C(F)(F)F)C(F)(F)F [Perfluoropinacol]; settings: in DMSO
Protocol: as §1

[8] = compound: FC(F)(F)C(F)(F)C(F)(F)C(F)(F)CCI [1H,1H,2H,2H-Perfluorohexyl iodide]; settings: in DMSO
Protocol: as §1

| Test System | level (log10) ([1]; 6700 nM) | level (log10) ([1]; 20000 nM) | level (log10) ([1]; 60000 nM) | level (log10) ([2]; 6700 nM) | level (log10) ([2]; 20000 nM) | level (log10) ([2]; 60000 nM) | level (log10) [3] | level (log10) [4] | level (log10) [5] | level (log10) ([6]; 6700 nM) | level (log10) ([6]; 20000 nM) | level (log10) ([6]; 60000 nM) | level (log10) ([7]; 6700 nM) | level (log10) ([7]; 20000 nM) | level (log10) ([7]; 60000 nM) | level (log10) (Perfluoropinacol; 6700 nM) | level (log10) (Perfluoropinacol; 20000 nM) | level (log10) ([8]; 6700 nM) | level (log10) ([8]; 20000 nM) | level (log10) ([8]; 60000 nM) |
| --- | --- | --- | --- | --- | --- | --- | --- | --- | --- | --- | --- | --- | --- | --- | --- | --- | --- | --- | --- | --- |
| HDF3CGF:CXCL10/IP-10 | -0.0105 ± 0.0064 | -0.041 ± 0.048 | -0.15 ± 0.096 | -0.002 ± 0.0014 | -0.017 ± 0.044 | -0.401 ± 0.061 | -0.315 | -0.492 ± 0.023 | -0.275 ± 0.057 | -0.008 ± 0.025 | 0.0085 ± 0.013 | 0.006 ± 0.055 | 0.0005 ± 0.0092 | -0.002 ± 0.0071 | -0.015 ± 0.0057 | -0.0535 ± 0.023 | -0.215 ± 0.012 | 0.0045 ± 0.035 | -0.0155 ± 0.0064 | -0.069 ± 0.02 |
| MyoF:MMP-1 | -0.001 ± 0.054 | 0.0505 ± 0.0064 | 0.27 ± 0.033 | -0.018 ± 0.014 | -0.0295 ± 0.0078 | 0.15 ± 0.26 | 0.469 | 0.231 ± 0.023 | 0.0315 ± 0.011 | -0.0115 ± 0.0035 | 0.0185 ± 0.016 | 0.048 ± 0.014 | -0.0085 ± 0.039 | -0.0145 ± 0.021 | 0.02 ± 0.044 | -0.0075 ± 0.012 | -0.027 ± 0.0042 | -0.0055 ± 0.023 | -0.0045 ± 0.039 | 0.066 ± 0.11 |
| CASM3C:CCL2/MCP-1 | -0.0125 ± 0.0035 | -0.0095 ± 0.0092 | -0.0075 ± 0.018 | -0.015 ± 0.0071 | -0.0125 ± 0.0078 | -0.034 ± 0.034 | -0.006 | -0.0195 ± 0.0064 | -0.0175 ± 0.016 | -0.0075 ± 0.0035 | -0.02 ± 0.0057 | 0.011 ± 0.025 | 0.001 ± 0.0042 | -0.0005 ± 0.0064 | 0.0215 ± 0.035 | 0.0185 ± 0.013 | 0.096 ± 0.017 | 0.0045 ± 0.0021 | -0.008 ± 0.0028 | 0.0235 ± 0.067 |
| MyoF:CXCL8/IL-8 | -0.024 ± 0.031 | -0.006 ± 0.03 | 0.0205 ± 0.013 | -0.0055 ± 0.025 | -0.0095 ± 0.037 | -0.005 ± 0.025 | 0.153 | -0.049 ± 0.035 | -0.0505 ± 0.033 | -0.0065 ± 0.0078 | -0.162 ± 0.022 | -0.115 ± 0.025 | -0.0155 ± 0.035 | -0.0125 ± 0.0078 | 0.0195 ± 0.015 | 0.0295 ± 0.005 | 0.0265 ± 0.012 | 0.065 ± 0.1 | 0.078 ± 0.1 | 0.142 ± 0.12 |
| BE3C:uPA | -0.0335 ± 0.0092 | 0.0015 ± 0.0092 | -0.0195 ± 0.0035 | -0.0055 ± 0.0021 | -0.005 ± 0.013 | 0.001 ± 0.0014 | -0.002 | -0.02 ± 0.014 | -0.005 ± 0.0085 | 0.01 ± 0.018 | -0.0155 ± 0.019 | -0.001 ± 0.0057 | 0.0075 ± 0.021 | -0.004 ± 0.0071 | -0.0175 ± 0.00071 | -0.0055 ± 0.005 | -0.042 ± 0.011 | -0.001 ± 0.0071 | -0.007 ± 0.0071 | -0.001 ± 0.0014 |
| MyoF:CD106/VCAM-1 | -0.0025 ± 0.0035 | -0.032 ± 0.0071 | -0.163 ± 0.0057 | -0.003 ± 0.0071 | -0.009 ± 0.017 | -0.002 ± 0.018 | -0.373 | -0.219 ± 0.035 | -0.078 ± 0.044 | 0.004 ± 0.0014 | 0.023 ± 0.0014 | 0.0135 ± 0.0021 | -0.021 ± 0.034 | -0.03 ± 0.028 | -0.034 ± 0.0057 | -0.013 ± 0.011 | -0.042 ± 0.0085 | 0.001 ± 0.0071 | -0.0135 ± 0.015 | -0.059 ± 0.014 |
| lMphg:sIL-10 | -0.0335 ± 0.015 | 0.0005 ± 0.0092 | 0.029 ± 0.033 | 0.0065 ± 0.073 | -0.0215 ± 0.013 | -0.023 ± 0.0071 | -0.219 | -0.067 ± 0.014 | -0.027 ± 0.013 | -0.194 ± 0.063 | -0.0825 ± 0.14 | -0.0155 ± 0.091 | -0.045 ± 0.075 | -0.061 ± 0.037 | -0.0855 ± 0.091 | 0.031 ± 0.017 | -0.498 ± 0.24 | -0.072 ± 0.047 | -0.043 ± 0.03 | -0.0495 ± 0.042 |
| HDF3CGF:TIMP-2 | 0.025 ± 0.092 | -0.0355 ± 0.032 | -0.1545 ± 0.00071 | 0.004 ± 0.0099 | -0.0195 ± 0.0064 | -0.0905 ± 0.17 | -0.012 | -0.104 ± 0.066 | 0.029 ± 0.013 | -0.042 ± 0.081 | -0.101 ± 0.053 | -0.032 ± 0.035 | -0.0165 ± 0.029 | -0.002 ± 0.037 | -0.0105 ± 0.005 | -0.0625 ± 0.005 | -0.126 ± 0.0021 | -0.0105 ± 0.013 | -0.023 ± 0.021 | -0.115 ± 0.0064 |
| lMphg:SRB | -0.003 ± 0.0014 | -0.005 ± 0.0042 | -0.005 ± 0.0057 | -0.001 ± 0.0099 | -0.001 ± 0.0028 | -0.0005 ± 0.0092 | -0.028 | -0.0075 ± 0.0035 | 0.0045 ± 0.0078 | 0.004 ± 0.013 | -0.002 ± 0.0042 | -0.0055 ± 0.00071 | -0.0035 ± 0.011 | -0.0025 ± 0.0021 | 0.0045 ± 0.023 | -0.0315 ± 0.0035 | -0.144 ± 0.0064 | -0.008 ± 0.011 | -0.003 ± 0.0028 | 0 ± 0.021 |
| 3C:CCL2/MCP-1 | 0.0115 ± 0.053 | -0.017 ± 0.016 | 0.008 ± 0.024 | -0.005 ± 0.011 | -0.005 ± 0.0014 | -0.007 ± 0.033 | 0.01 | 0.025 ± 0.044 | 0.003 ± 0.013 | -0.011 ± 0.0028 | -0.0075 ± 0.0021 | -0.0475 ± 0.011 | -0.0065 ± 0.019 | -0.0115 ± 0.022 | 0.021 ± 0.048 | 0.092 ± 0.013 | 0.0445 ± 0.012 | 0.015 ± 0.0014 | -0.0195 ± 0.0092 | 0.0055 ± 0.026 |
| CASM3C:IL-6 | -0.036 ± 0.042 | 0.0085 ± 0.074 | -0.031 ± 0.047 | -0.008 ± 0.025 | -0.0165 ± 0.042 | -0.0005 ± 0.0021 | -0.063 | -0.0735 ± 0.15 | -0.0335 ± 0.0021 | -0.035 ± 0.013 | -0.0435 ± 0.005 | -0.0155 ± 0.033 | -0.019 ± 0.0028 | -0.0295 ± 0.011 | 0.005 ± 0.067 | -0.0045 ± 0.025 | 0.033 ± 0.0085 | 0.0195 ± 0.028 | 0.005 ± 0.025 | 0.036 ± 0.098 |
| MyoF:alpha-SM Actin | -0.041 ± 0.0014 | -0.075 ± 0.011 | -0.182 ± 0.028 | 0 ± 0.0057 | -0.006 ± 0.0099 | 0.011 ± 0.054 | -0.486 | -0.157 ± 0.012 | -0.0885 ± 0.061 | -0.052 ± 0.011 | -0.0625 ± 0.022 | -0.0765 ± 0.019 | 0.0075 ± 0.019 | 0 ± 0.011 | -0.012 ± 0.025 | -0.004 ± 0.0028 | -0.14 ± 0.035 | 0.03 ± 0.064 | 0.0325 ± 0.064 | 0.043 ± 0.034 |
| lMphg:M-CSF | 0.0155 ± 0.04 | -0.0225 ± 0.018 | -0.042 ± 0.025 | -0.023 ± 0.028 | -0.0415 ± 0.035 | -0.0285 ± 0.029 | -0.023 | -0.0105 ± 0.015 | -0.0255 ± 0.00071 | -0.0295 ± 0.005 | -0.0305 ± 0.0035 | -0.016 | -0.012 ± 0.0071 | -0.025 ± 0.035 | -0.0135 ± 0.029 | -0.0155 ± 0.04 | -0.0825 ± 0.013 | -0.018 ± 0.017 | -0.0275 ± 0.018 | 0.0185 ± 0.0035 |
